The conditions of data set [1]: cited from earlier work.
For data set [2] the following is noted: cited from earlier work. The source holds these as a separate data set.
Data set [3] can be described thus: Absorption spectra (UV-Visible) in aqueous solution at several pH values. It counts as physicochemical. Also noted: Absorption λmax: unit not given here. As to the method:
Absorption spectra of compounds 4 and 23 were measured using a Varian array-1E UV-Visible spectrometer. Spectra were determined in dilute HCl or NaOH solutions in the pH range of 1.6-12.3 or at pH 7.0. The concentration of the samples of 4 in aqueous solutions and in organic solvents was of the order of 4.85×10^−5 M and of 23 in aqueous solutions was of the order of 5.04×10^−5 M.

Data set [4] can be described thus: Emission (fluorescence) spectra and quantum yield, quinine sulfate as reference. It counts as physicochemical. The arrangement: Emission λmax: unit not given here. The settings on record: for Maximum emission (λmax) in water / Quantum yield (φ) in water: excitation at 290 nm (4), 330 nm (17); for φ290: 290 nm. As to the method: Emission spectra of compounds 4 and 23 were measured using an Aminco-Bowman series 2 Luminescence Spectrometer. Measurement conditions included: 740-750 V sensitivity, and a 4 or 2 nm slit in the emission spectra for aqueous or organic solutions, respectively. Emission spectra were corrected by the subtraction of the medium's emission spectrum. Spectra were determined in dilute HCl or NaOH solutions in the pH range of 1.6-12.3 or at pH 7. The concentration of the samples of 4 was of the order of 4.85×10^−5 M for aqueous and organic solutions and of 23 in the order of 5.04×10^−5 M for aqueous solutions. All organic solvents were freshly distilled prior to emission measurements. Measurements of the emission of the nucleoside analogue were conducted with subtraction of the solvent's emission. The quantum yield of each compound was calculated from the observed absorbance at 290 nm and the area of the fluorescence emission band. Quinine sulfate was used as reference compound assuming a quantum yield value of 0.55 (Andrew et al., 1988).

The nature of data set [5]: pKa determination by pH-titration monitored by fluorescence spectroscopy. It counts as physicochemical. The text has this:
H-bonding pattern of N^2,N3-ε-A is dependent not only on tautomeric equilibria, but also on acid-base equilibria, namely, on protonation states. For analyzing the protonation state of N^2,N3-ε-A at physiological pH, we determined the pKa values of this system.
Specifically, we monitored the pH-titration of N^2,N3-E-A, 4, by fluorescence spectroscopy. 1×10^−5 M solutions of N^2,N3-ε-A-5′-mono-phosphate were titrated by HCl in the pH range of 1.5-7.0.

A short description of another data set: Fluorescence life-time. It counts as physicochemical. How it is done:
Fluorescent emission is a random process, and the excited molecules emit photons within a certain time, usually of the order of ns. For N^2,N3-ε-A, 4, and N^2,N3-ε-2′-deoxy-A, 23, fluorescence life times of 2.26 and 2.1 ns, respectively, were measured. These life times are relatively long and are therefore more convenient for the fluorescence measurements.

A short description of data set [6]: Stability under automated DNA synthesis conditions (TLC and MS). Type of data set: physicochemical. How it is done: In order for a compound to be used in automated DNA synthesis, it has to be able to withstand the conditions of the different reactions in the synthesis. For example, it has to be stable in the treatment with 28% ammonia for two hours at 60° C.

In a further data set the target is T1, rat brain P2Y1-receptor (Rattus norvegicus, UniProt P49651).
T1 construct: expressed in transfected cells
T1 sequence (P49651 whole entry): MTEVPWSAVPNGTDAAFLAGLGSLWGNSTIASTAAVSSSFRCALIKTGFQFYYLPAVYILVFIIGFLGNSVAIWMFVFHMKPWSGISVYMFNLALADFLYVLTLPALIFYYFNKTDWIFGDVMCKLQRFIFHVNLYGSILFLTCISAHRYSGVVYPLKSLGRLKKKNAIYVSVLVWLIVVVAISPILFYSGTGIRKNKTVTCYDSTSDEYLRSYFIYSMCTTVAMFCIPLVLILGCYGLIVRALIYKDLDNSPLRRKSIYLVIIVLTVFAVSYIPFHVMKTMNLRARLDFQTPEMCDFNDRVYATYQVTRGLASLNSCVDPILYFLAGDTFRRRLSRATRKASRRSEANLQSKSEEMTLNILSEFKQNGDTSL
As to the kind of experiment: Agonist-induced Ca2+ release in HEK 293 cells stably transfected with P2Y1-receptor. It counts as cell-based. As to conditions: HEK 293 cells with rat brain P2Y1-receptor. The text has this: To examine the efficacy of analogues 30a,d in a functional assay, we tested them by the agonist-induced Ca^2+ release in HEK 293 cells stably transfected with rat brain P2Y1-receptor (FIG. 6) (Voehringer et al., 2000). […] However, a benzyl substitution at N^6 of 30a, as in analogue 30d, reduced the ligand's potency. […] EC50 value in the range of 10^−6 M.

Setting [7] is: in DMF (εd 37.6), 4.85 × 10^−5 M.
[8] abbreviates: in DMSO (εd 47.6), 4.85 × 10^−5 M.
Where [9] appears, read: in Dioxane (εd 2.2), 4.85 × 10^−5 M.
Where [10] appears, read: 1×10^−5 M solutions of the 5′-mono-phosphate titrated by HCl, pH 1.5-7.0, listed as N^2,N3-ε-A.

The values below come from patent US7385051B2, “Fluorescent N2,N3-etheno-purine (2′-deoxy) riboside derivatives and uses thereof” (Bar-llan University, priority 2005, dated 2008).

Several values for one entry are separate records, joined by “and”; a condition that tells them apart may be missing. Identical values can stand only once. Entries after “also recorded” stand apart in the source; their conditions may differ. Like-named read-outs stand apart in the source and are kept apart here.

As for `OC[C@H]1O[C@@H](n2cnc3c2ncn2ccnc32)[C@H](O)[C@@H]1O` [Compound 1, N1,N^6-etheno-adenosine], the “Emission λmax” value in data set [1] (Secrist et al., 1972, Thomas and Leonard, 1976) is on record as 415 nm.

As for `O=c1nc2[nH]ccn2c2c1ncn2[C@@H]1O[C@H](CO)[C@@H](O)[C@H]1O` [Compound 3, N^2,N3-etheno-guanosine], the pKa in data set [2] (literature (Glemarec et al., 1991 for the ε-G compounds)) is listed as 2.11. Moreover, the “pKa of N7” value in data set [2] (literature value as quoted) is listed as 5.20. Also, the Maximum emission in data set [1] (excitation at 280 nm, Sattsangi et al., 1977) is recorded as 410 nm. Besides, in data set [1] (in water, Kusmierek et al., 1987), the “Emission maximum in water” value was 410 nm.

For the molecule `Nc1nc2nccn2c2c1ncn2C1OC(CO)C(O)C1O` (centres unmarked) [Compound 4, N^2,N3-etheno-adenosine], in data set [3] (in water), the “Absorption bands in water” value was 234 nm and 274 nm. The “Absorption coefficient of the band at 234 nm” value in data set [3] (in water, 234 nm) is recorded as 12.6×10^3. Besides, in data set [3] (in water, 274 nm), the “Absorption coefficient of the band at 274 nm” value is 3.3×10^3. Besides, the “Absorption λmax” value in data set [3] (pH 1.6, 4.85 × 10^−5 M) is 224 and 268; in data set [3] (pH 7.0, 4.85 × 10^−5 M), 234 and 274; in data set [3] (pH 12.3, 4.85 × 10^−5 M) it was 234 and 276. Also, the εd is recorded as 6.17 × 10^3 in data set [3] (pH 1.6, band at λmax 224); 14.22 × 10^3 in data set [3] (pH 1.6, band at λmax 268); 12.58 × 10^3 in data set [3] (pH 7.0, band at λmax 234); 3.31 × 10^3 in data set [3] (pH 7.0, band at λmax 274); 13.89 × 10^3 in data set [3] (pH 12.3, band at λmax 234); 3.69 × 10^3 in data set [3] (pH 12.3, band at λmax 276). The “Fluorescence at acidic pH” value in data set [4] (acidic pH) is reported as “significant fluorescence”. The “Emission λmax” value in data set [4] (setting [7]) was found to be 448; in data set [4] (setting [8]) it was 458; in data set [4] (setting [9]), 434; in data set [4] (pH 1.6, 4.85 × 10−5 M), 396; in data set [4] (pH 7.0, 4.85 × 10−5 M), 420; in data set [4] (pH 12.3, 4.85 × 10−5 M) it was 420. For the same molecule, the “φ (quantum yield)” value in data set [4] (setting [7]) turned out to be 0.082; in data set [4] (setting [8]) it was 0.085; in data set [4] (setting [9]) it was 0.042; in data set [4] (pH 1.6, 4.85 × 10−5 M), 0.021; in data set [4] (pH 7.0, 4.85 × 10−5 M), 0.032; in data set [4] (pH 12.3, 4.85 × 10−5 M), 0.031. Besides, the “Maximum emission (λmax) in water” value in data set [4] is listed as 420 nm. Also, in data set [4], the “Quantum yield (φ) in water” value came to 0.03. Besides, the “pKa (first; assigned to the exocyclic amine)” value was determined as 1.92 in data set [5] (setting [10]) and 1.92±0.08 in data set [5] (pH 1.5). The “pKa (second; attributed to N8)” value is on record as 3.16 in data set [5] (setting [10]) and 3.16±0.24 in data set [5] (pH 1.5). Further, the “pKa (third; N7, most basic nitrogen)” value in data set [5] (setting [10]) was 6.09; in data set [5] (pH 1.5), 6.09±0.16. The “Non-protonated fraction at physiological pH” value in data set [5] (pH 7.4) was found to be 96%. The same molecule registered a Fluorescence life time in the data set “Fluorescence life-time” of 2.26 ns.

Consider `O=c1c2ncn(C3O[C@H](CO)[C@@H](O)[C@H]3O)c2[nH]c2nccn12` (some centres unmarked) [Compound 5], for which the “Fluorescence” value in data set [1] (Sattsangi et al., 1977, Kusmierek et al., 1992) is “non-fluorescent”.

`CSc1nc2nccn2c2c1ncn2C1OC(CO)C(O)C1O` (centres unmarked) [Compound 17, N^2,N3-etheno-6-methylthio-purine riboside]: the “Absorption bands in water” value in data set [3] (in water) is 227 nm and 247 nm and 307 nm and 345 nm. Besides, the “Absorption λmax” value in data set [3] (pH 1.6, 5.04 × 10^−5 M) was 227 and 243 and 301 and 331; in data set [3] (pH 7.0, 5.04 × 10^−5 M) it was 231 and 247 and 307 and 345; in data set [3] (pH 12.3, 5.04 × 10^−5 M) it was 233 and 307. Also, the εd in data set [3] (pH 1.6, band at λmax 227) is given as 16.52 × 10^3; in data set [3] (pH 1.6, band at λmax 243), 13.57 × 10^3; in data set [3] (pH 1.6, band at λmax 301), 7.39 × 10^3; in data set [3] (pH 1.6, band at λmax 331), 7.13 × 10^3; in data set [3] (pH 7.0, band at λmax 231) it was 16.09 × 10^3; in data set [3] (pH 7.0, band at λmax 247), 13.25 × 10^3. Besides, the εd in data set [3] (pH 7.0, band at λmax 307) was 7.07 × 10^3; in data set [3] (pH 7.0, band at λmax 345) it was 2.90 × 10^3; in data set [3] (pH 12.3, band at λmax 233) it was 19.29 × 10^3; in data set [3] (pH 12.3, band at λmax 307), 5.95 × 10^3. Moreover, in data set [4], the “Maximum emission (λmax) in water” value is 520 nm and 518 nm. The “Quantum yield (φ) in water” value in data set [4] was determined as 0.15. The “Emission λmax” value in data set [4] (pH 1.6, 5.04 × 10^−5 M) is 492 and 516; in data set [4] (pH 7.0, 5.04 × 10^−5 M), 494 and 518; in data set [4] (pH 12.3, 5.04 × 10^−5 M) it was 494 and 520. The “φ (quantum yield)” value was 0.037 in data set [4] (pH 1.6, 5.04 × 10^−5 M); 0.152 in data set [4] (pH 7.0, 5.04 × 10^−5 M); 0.067 in data set [4] (pH 12.3, 5.04 × 10^−5 M).

For `Nc1nc2nccn2c2c1ncn2C1CC(O)C(CO)O1` (centres unmarked) [Compound 23], in data set [3] (pH 7.0), the “ε (238 nm)” value is on record as 4.67×10^3 and the “ε (308 nm)” value is on record as 1.23×10^3. The φ290 in data set [4] (pH 7.0) stood at 0.085. Also, the Fluorescence life time in the data set “Fluorescence life-time” is on record as 2.1 ns. Moreover, the “Stability against 2% dichloroacetic acid” value in data set [6] (2% dichloroacetic acid, 2 min) is on record as “stable”. Moreover, the “Stability in 28% ammonia” value in data set [6] (28% ammonia, two hours at 60° C.) is reported as “stable”.

As for `Nc1c2ncn(C3CC(O)C(CO)O3)c2nc2nccn12` (centres unmarked) [Compound 25, N1,N^2-etheno-2′-deoxy-adenosine], in data set [3] (pH 7.0), the “ε (238 nm)” value is recorded as 4.12×10^3 and the “ε (308 nm)” value was 1.02×10^3. The φ290 in data set [4] (pH 7.0) was found to be 0.07.

`O=P(O)(O)OP(=O)(O)OP(=O)(O)OCC1OC(n2cnc3c(NCc4ccccc4)nc4nccn4c32)C(O)C1O` (centres unmarked) [Compound 30d, N^6-Benzyl-N^2,N3-ethenoadenosine-5′-triphosphate]: the EC50 on rat brain P2Y1-receptor (Ca^2+ release) was around 1 µM. For the same molecule, on rat brain P2Y1-receptor, the “Potency at P2Y1-R compared to ATP / 30a” value is recorded as “reduction by one order of magnitude; also recorded: significant reduction of the affinities”.
